According to US20110038855A1, “TRAIL AND METHODS OF MODULATING T CELL ACTIVITY AND ADAPTIVE IMMUNE RESPONSES USING TRAIL” (priority 2005, published 2011):
Peptide text beside a SMILES is read from it. * marks the point of attachment. Cbz = O=C(OCc1ccccc1)*; CH2F = FC*

Legend:
[1] = test system: E1B192-200-specific CD8+ T cells; type: cell-based, mouse; conditions: for secondary expansion of purified helpless CD8+ T cells (fold expansion of IFN-γ-producing E1B192-200-specific CD8+ T cells): caspase inhibitors 20 μM, 6 days after in vitro restimulation, CD4-depleted mice, FIGS. 1a, 1b
[2] = test system: GP33-41-specific CD8+ T cells; type: cell-based, mouse; conditions: 6 days

Row | Molecule | secondary expansion of purified helpless CD8+ T cells (fold expansion of IFN-γ-producing E1B192-200-specific CD8+ T cells) [1] | secondary expansion of helpless LCMV-specific CD8+ T cells [2] | secondary expansion of helpless CD8+ T cells from TRAIL-deficient mice in presence of exogenous TRAIL ([1]; CD4-depleted TRAIL-/- mice, 6 days, FIG. 4b) | secondary expansion of helped CD8+ T cells in presence of exogenous TRAIL ([1]; intact wild type mice, 6 days, FIG. 4a)
1 | CC(C)C(NC(=O)c1ccc2ccccc2n1)C(=O)NC(CC(=O)O)C(=O)COc1c(F)cccc1F (stereo not drawn) [qVD-OPh, quinoline-Val-Asp-CH2-difluorophenoxy] | restored secondary expansion | – | – | –
2 | COC(=O)C[C@H](NC(=O)[C@H](C)NC(=O)[C@@H](NC(=O)OCc1ccccc1)C(C)C)C(=O)CF [zVAD-fmk, benzyloxycarbonyl-Val-Ala-Asp-fluoromethyl ketone] (Cbz-Val-Ala-Asp(OMe)-CH2F) | restored secondary expansion | restored | – | –
3 | recombinant TRAIL (protein) PRGGRPQKVAAHITGITRRSNSALIPISKDGKTLGQKIESWESSRKGHSFLNHVLFRNGELVIEQEGLYYIYSQTYFRFQEAEDASKMVSKDKVRTKQLVQYIYKYTSYPDPIVLMKSARNSCWSRDAEYGLYSIYQGGLFELKKNDRIFVSVTNEHLMDLDQEASFFGAFLIN | – | – | failed to do so | completely inhibited secondary expansion
